Where two headings read alike, the source gives them in different places.
Test system: IPOHE (Ipomoea hederacea, ivyleaf morningglory)
Test: Postemergence foliar-applied mixtures, direct seeded rice, greenhouse
Assay type: in vivo, Ipomoea hederacea Jacq.
Settings: post-emergence
Summary of the method: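 Greenhouse plants in loam/grit soil (about 29/26°C, 14 h photoperiod) sprayed post-emergence at first to fourth true leaf stage at 187 L/ha. Compound A dosed as acid equivalent, partner PSII herbicides as active ingredient, alone and in mixtures, in spray solutions containing 1.25% crop oil concentrate.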

COc1c(Cl)ccc(-c2nc(C(=O)O)c(Cl)c(N)c2F)c1F [Compound A Acid, 4-amino-3-chloro-6-(4-chloro-2-fluoro-3-methoxyphenyl)-5-fluoropyridine-2-carboxylic acid]
pest or weed control at 19.4 g/ha (480 h, 19.4 g ae/ha, 20 DAA, read-out: Visual Weed Control (%) Obs): 15%
pest or weed control at 21.2 g/ha (480 h, 21.2 g ae/ha, 20 DAA, read-out: Visual Weed Control (%) Obs): 35%
pest or weed control at 42.4 g/ha (480 h, 42.4 g ae/ha, 20 DAA, read-out: Visual Weed Control (%) Obs): 55%
pest or weed control at 4.38 g/ha (504 h, 4.38 g ae/ha, 21 DAA, read-out: Visual Weed Control (%) Obs): 15%
pest or weed control at 8.75 g/ha (504 h, 8.75 g ae/ha, 21 DAA, read-out: Visual Weed Control (%) Obs): 35%

CCC(=O)Nc1ccc(Cl)c(Cl)c1 [Propanil, N-(3,4-dichlorophenyl)propanamide, reference compound]
pest or weed control at 3360 g/ha (480 h, 3360 g ai/ha, 20 DAA, read-out: Visual Weed Control (%) Obs): 40%
pest or weed control at 420 g/ha (504 h, 420 g ai/ha, 21 DAA, read-out: Visual Weed Control (%) Obs): 0%
pest or weed control at 840 g/ha (504 h, 840 g ai/ha, 21 DAA, read-out: Visual Weed Control (%) Obs): 0%
pest or weed control at 1680 g/ha (504 h, 1680 g ai/ha, 21 DAA, read-out: Visual Weed Control (%) Obs): 0%

COc1c(Cl)ccc(-c2nc(C(=O)OCc3ccccc3)c(Cl)c(N)c2F)c1F [Compound A Benzyl Ester, benzyl ester of 4-amino-3-chloro-5-fluoro-6-(4-chloro-2-fluoro-3-methoxy-phenyl)pyridine-2-carboxylic acid]
pest or weed control at 32 g/ha (480 h, read-out: Visual Weed Control (%) Obs, 32 g ae/ha, 20 DAA): 55%
pest or weed control at 4.38 g/ha (504 h, read-out: Visual Weed Control (%) Obs, 4.38 g ae/ha, 21 DAA): 0%
pest or weed control at 8 g/ha (504 h, read-out: Visual Weed Control (%) Obs, 8 g ae/ha, 21 DAA): 10%
pest or weed control at 8.75 g/ha (504 h, read-out: Visual Weed Control (%) Obs, 8.75 g ae/ha, 21 DAA): 15%
pest or weed control at 16 g/ha (504 h, read-out: Visual Weed Control (%) Obs, 16 g ae/ha, 21 DAA): 25%
pest or weed control at 17.5 g/ha (504 h, read-out: Visual Weed Control (%) Obs, 17.5 g ae/ha, 21 DAA): 38%
pest or weed control at 17.5 g/ha (504 h, read-out: Visual Weed Control (%) Obs, 17.5 g ae/ha, 21 DAA (second set, r27-r31)): 38%
pest or weed control at 32 g/ha (504 h, read-out: Visual Weed Control (%) Obs, 32 g ae/ha, 21 DAA): 60%
pest or weed control at 35 g/ha (504 h, read-out: Visual Weed Control (%) Obs, 35 g ae/ha, 21 DAA): 55%

From patent US8912121B2, “Herbicidal compositions comprising 4-amino-3-chloro-5-fluoro-6-(4-chloro-2-fluoro-3-methoxyphenyl)pyridine-2-carboxylic acid or a derivative thereof and certain PS II inhibitors” (Dow Agrosciences LLC, priority 2012, dated 2014)
